In a melting point compilation (Tetko et al.; mined from patent text by program, amines drawn as free bases though some values may be those of a salt) one finds melting point data, which are given here for 64 compounds.

The structures appear in SMILES notation. Where only a bound is given, the exact number is not on record here.

In general, melting point refers to the temperature of the solid-liquid transition. The compound `N#Cc1cc(-c2ccoc2)c2ccc(COc3cc(F)cc(-c4cccnc4)c3)cc2n1` came in with a melting point of 193 to 195 °C. The compound `Cc1cc(C2(C(F)(F)F)CC(c3ccc(S(C)=O)cc3)=NO2)ccc1NC(=O)OC(C)(C)C` (centres undefined) returned a melting point of 76.5 to 88.5 °C. `CS(=O)(=O)C(=C1CN(C(c2ccccc2)c2ccccc2)C1)c1ccc2ccccc2c1` showed a melting point of 178 °C. Under `CCOc1cc([C@@H](CC(=O)N(C)C)N2Cc3cccc(NCC(C)(C)C)c3C2=O)ccc1OC` stands 111 to 113 °C. Under `O=C(O)CCCN(C(=O)c1ccc(Cl)c(Cl)c1)c1ccc2c(c1)CCC2` stands 58 to 59 °C; under `O=C1NC(=O)C2(CCCCC2)N1c1cccnc1`, 264 to 266 °C. Next, `S=C(Cc1ccc(Cl)cc1)N1CCCCC1`: 82.5 to 83.5 °C; `COCCOC[C@H](CC1(C(=O)N[C@H]2CC[C@@H](C(=O)O)CC2)CCCC1)C(=O)O`: 108 °C; `C/C(=C/C(=O)N(C)O)c1ccn(-c2c(C)cccc2C)c1`: 158 to 160 °C. With `NC(=O)N(O)Cc1ccc(C(O)C#Cc2ccsc2)cc1` (centres undefined), the melting point lay in the range of 117 to 119 °C. With `CC1=C(c2ccncc2)SC(C)C(=O)N1` (centres undefined), the melting point is 144 to 146 °C. Consider `Cc1nc2c(N)nc3ccccc3c2n1CCC1(O)CCOCC1`, for which the melting point is greater than 253 °C. In turn, `CCOC(=O)c1cc2n(n1)CCOC2` yielded a melting point of 63 °C.

As to `CCOC(=O)C1=C(C(F)(F)F)Nc2n[nH]cc2C1c1cccc2ccccc12` (centres undefined), the melting point lay in the range of 119 to 120 °C. Compound `CC(C)N1C(=O)C(C(N)=O)N(c2cc(Cl)cc(Cl)c2)C1=O` (centres undefined) returned a melting point of 200 °C. Next, `C(=Cc1ccc(N(c2ccccc2)c2ccccc2)cc1)c1ccc(N(c2ccccc2)c2ccccc2)cc1`: 247 to 259 °C; `CC(C)(C)c1cc2c(c(C(=O)Nc3ccc(S(=O)(=O)C(F)(F)F)cc3Cl)c1O)CCO2`: 201 to 202 °C; `CNC(=S)C1(c2cccc([N+](=O)[O-])c2)CCCCC1=O` (centres undefined): 128 to 132 °C. With `O=c1[nH]c(=O)n2c(c1-c1ccccc1)SC=CC2`, the melting point lay within 286 to 290 °C. `COCCOc1cc(N(C)S(=O)(=O)c2ccccn2)c2[nH]c(C3=N[C@@H](CO)CS3)cc2c1`: the melting point stood at 147 °C. Turning to `O=C(Nc1ccc([N+](=O)[O-])cc1O)NC(c1ccccc1)c1ccccc1`, the melting point was in the range of 237 to 238 °C. Compound `C[C@@H](NC(=O)c1c[nH]c2ncc(-c3nn(C)c4cc(Cl)cc(Cl)c34)nc12)C(=O)N1CC(C#N)C1` registered a melting point of 196 to 200 °C. `N#CC=Cc1ccc(Cl)c(Cl)c1`: the melting point is 98.2 °C.

With `O=C1C(I)=CC2COC1O2` (centres undefined), the melting point was 66 to 67 °C. Compound `CN(CC(=O)O)C(=S)c1ccc(Cl)cc1` displayed a melting point of 72 to 73 °C. Turning to `CNc1nc(C)c(-c2nc3ccccc3c(=O)n2-c2ccccc2)s1`, the melting point is 209 to 210 °C. Consider `CCOC(=O)c1cn(Cc2ccccc2)c2cc(C3CC3)nn2c1=O`, for which the melting point fell in the range of 160 to 165 °C. For `COCCNc1cccc(C(N)=O)c1`, the melting point was 89 to 91 °C. Next, `CCCCC(CC)C(=O)Nc1ccc2c(c1)c(Cc1ccc(C(=O)NS(=O)(=O)c3ccccc3)cc1OC)cn2C` (centres undefined): 169 to 171 °C; `CC(C)C(=O)C(=CC(=O)c1ccc(Cl)cc1)n1cncn1`: 128 to 130 °C; `CC[C@@H](c1ccccc1)N(Cc1ccc(S(C)(=O)=O)cc1)S(=O)(=O)c1ccc(Cl)cc1`: 61 to 63 °C. Under `O=S1(=O)c2ccccc2N(c2ccccn2)c2ccccc21` stands 184 to 188 °C; under `CCOc1csc2ccc(C(=O)c3cnoc3C3CC3)c(SC)c12`, 166 to 168 °C. `CCCCNC(=O)C1(c2ccccc2)CCN(C)CC1` displayed a melting point of 73 to 76.5 °C. `C[N+](C)([O-])c1ccc(/C=C/c2c(Cl)cccc2Cl)cc1` came in with a melting point of 80 to 82 °C. In the case of `OCC1OC(c2ccc(Cl)c(Cc3ccc(-c4ccc(F)nc4)s3)c2)C(O)C(O)C1O` (centres undefined), the melting point was 131 to 134 °C.

Take `CCCCCCCCCCCc1nnc2n1-c1ccccc1C(c1ccccc1)=NC2`: the melting point fell in the range of 76 to 77 °C. As to `O=[N+]([O-])c1ccccc1CCN1CCN(c2ccccc2)CC1`, the melting point came to 76 °C. Take `CCCCc1oc2ccc(C(=O)OC)cc2c1C(=O)c1ccc(O)cc1`: the melting point lay within 152 to 153 °C. Under `O=P1(O)Oc2ccccc2-c2cc(F)ccc21` stands 240 °C; under `c1ccc2c(c1)nc(N1CCOCC1)c1c(-c3noc(C4CC4)n3)ncn12`, 169 to 173 °C. Turning to `Cc1c(C(=O)O)oc2cc(SC(=O)N(C)C)ccc12`, the melting point was 188 to 190 °C. Compound `COC(=O)c1ccc(C#Cc2ccc(O)c(C34CC5CC(CC(C5)C3)C4)c2)s1` registered a melting point of 207 to 208 °C. In the case of `Nc1nc(OS(=O)(=O)Cl)nn1C(=O)Oc1ccccc1`, the melting point amounted to 164 °C. For `N#Cc1c(N)c(C#N)c(-c2ccccc2)c2c1CCC2`, the melting point fell in the range of 148 to 149 °C. The compound `CCCCCCCCCCCCCCCCCCSCC(CO)C(C)C` (centres undefined) registered a melting point of 29 °C. Consider `Cc1cccc(NC(N)=S)n1`, for which the melting point was 188 to 190 °C.

Compound `O=C(c1ccc(F)c(Cl)c1)c1ccc(F)c(Cl)c1` registered a melting point of 93 °C. `ON=C(Cc1ccc(Cl)cc1)c1ccc(Cl)cc1Cl` had a melting point of 91 °C. Consider `Cc1nc(N2CCc3ccccc3CC2)c(C#N)c(=O)n1N(C)C(=O)OC(C)(C)C`, for which the melting point lay in the range of 164 to 166 °C. Take `O=c1oc(=O)n(CCc2ccccc2)c2ncccc12`: the melting point fell in the range of 147 to 149 °C. On to `COc1cc(C(C)=O)ccc1OCCCN1CCN(c2nn(C(=O)c3ccccc3)c3cc(F)ccc23)CC1`, for which the melting point was in the range of 138 to 140 °C.

As to `O=C(SC1CCC1C(=O)N1CCC[C@H]1C(=O)O)c1ccccc1` (some centres undefined), the melting point lay within 123 to 124 °C. Compound `CC(CCNc1cccc(-c2ccnc3c(C(=O)c4cccs4)cnn23)c1)c1ccccc1` (centres undefined) registered a melting point of 64 to 68 °C. The compound `COCCO[C@H]1c2ccn3c(C)c(C)nc3c2N[C@@H](c2ccccc2)[C@@H]1O` returned a melting point of 130 to 131 °C. Under `CC1(C)CCC(C)(C)c2c(O)ccc(O)c21` stands 114 °C. Next, `O=C(O)CC1(CC(O)=NO)CCCC1`: 70 to 74 °C; `CC(C)(Oc1ccc(Cl)cc1)C(=O)C(Oc1cccc(Cl)n1)n1cncn1` (centres undefined): 100 °C; `CC(=O)OC1C=C(C)C(=O)CC(C)(C)C1OC(=O)c1ccc(Cl)cc1` (centres undefined): 86 to 87 °C. In turn, `CCC(=O)N1CCCC2=C1CCc1cc(Cl)ccc12` displayed a melting point of 115 to 117 °C. `c1ccc2c(c1)CC1CN(Cc3c[nH]c4ncccc34)CCN21` (centres undefined) came in with a melting point of 197 to 198 °C.

In turn, `COC(=O)C(C)=CC=P(c1ccccc1)(c1ccccc1)c1ccccc1` gave a melting point of 145 to 150 °C. On to `CC(=O)NC[C@H]1CN(c2cc(F)c(N3CCC(n4nnc(N5CCOCC5)n4)CC3)c(F)c2)C(=O)O1`, for which the melting point was 232 to 234 °C. As for `CN(C)Cc1ccc(CSCCN=CNS(=O)(=O)c2ccc(Cl)cc2)o1`, the melting point fell in the range of 93 to 96 °C.
